Test [1] relates to SW48 cell line (gastric). Nature of the test: MTT cytotoxicity assay, SW48. Format: cell-based. The conditions noted are these: Homo sapiens, SW48; MTT assay, 72 hour incubation; read-out: Cytotoxicity SW48 (72 hrs). The method in brief:
(§1)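 Cells seeded at 1800/well in RPMI1640 + 10% FBS, adhered overnight, then exposed to compound 72 h at 37° C. Survival by MTT (500 μg/ml, 4 h), formazan in DMSO read at 540 nm, blank-corrected versus untreated wells; IC50 read from concentration–survival plot.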
On the technique in general: Formazan colour is commonly taken as a measure of viable cells.

Test [2] relates to SW620 cell line (gastric). The experiment in a line: MTT cytotoxicity assay, SW620. Format: cell-based. The conditions noted are these: Homo sapiens, SW-620; MTT assay, 72 hour incubation; read-out: Cytotoxicity SW620 (72 hours). The method in brief: as §1
The subject of test [3] is fluorescently labelled DNA duplex 5′-[…]-3′. The experiment in a line: FRET DNA melting, FIG. 13 bottom duplex (intrastrand). Format: binding. An excerpt:
FRET DNA melting studies were undertaken on 13 using two fluorescently labelled sequences. The sequences (FIG. 13) were designed to provide additional evidence that 13 can form inter- and intrastrand cross-links. Inosines were inserted in place of traditional DNA bases to limit the number of binding sites available for 13 to interact with.
Oligonucleotides were obtained from ATDbio (Southampton, UK) in lyophilised form. They were labelled with a fluorophore molecule (F=fluorescein) at the 5′-end and a quencher molecule (Q=dabcyl) at the 3′-end of the complementary strand. Each oligonucleotide was dissolved in distilled H2O to form stock solutions of 100 PM. Working solutions of 5 μM were prepared by diluting the stock solution with distilled H2O. […]
(§2) The reaction mixture was comprised of 4 μL of 250 mM phosphate buffer (final concentration of 50 mM), 4 μL flourophor and 4 μL quencher molecule of the appropriate oligonucleotide for a final concentration of 0.2 PM, 4 μL 5 M sodium chloride (final concentration of 1 M NaCl), and 4 μL of distilled H2O. […] This mixture was analysed without prior annealing.
(§3) Fluorescence melting profiles were measured using a Roche LightCycler using a total reaction volume of 20 μL. […] Annealing steps and melting steps were all recorded and changes in fluorescence were measured at 520 nm. […]

The test system is the same in test [4]. The experiment in a line: FRET DNA melting, FIG. 17 middle sequence. Format: binding. As to conditions: suggests interstrand cross-link formation.
Text: (§4) Further FRET DNA melting studies were undertaken on a number of molecules using three fluorescently labelled sequences. The sequences (FIG. 17) were designed to provide additional evidence that the series can form inter- and intrastrand cross-links. Inosines were inserted in place of traditional DNA bases in some cases to limit the number of binding sites available for the compounds to interact with. The short duplexes used in this FRET study are relatively unstable in the duplex form with a melting temperature below 30° C. so that, in the absence of ligand, a large part of the melting occurs below the starting temperature of the experiment. […] Increasing concentrations of 13 cause a greater amount of the melting transition to appear at the higher temperature (i.e. a greater number of the DNA molecules are cross-linked). […]
as §2, §3

Test [5] shares this test system. The experiment in a line: FRET DNA melting, FIG. 17 bottom sequence. Format: binding. The conditions noted are these: at higher concentrations; intra-strand cross-links.
Text: as §4, §2, §3

Test [6] relates to three fluorescently labelled DNA sequences shown in FIG. 17. The experiment in a line: FRET DNA melting, the three DNA sequences shown in FIG. 17 together. Format: binding. The conditions noted are these: different concentrations, all three sequences, vs control DNA. An excerpt:
Further FRET DNA melting studies were undertaken on a number of molecules using three fluorescently labelled sequences. The sequences (FIG. 17) were designed to provide additional evidence that the series can form inter- and intrastrand cross-links. Inosines were inserted in place of traditional DNA bases in some cases to limit the number of binding sites available for the compounds to interact with. The short duplexes used in this FRET study are relatively unstable in the duplex form with a melting temperature below 30° C. so that, in the absence of ligand, a large part of the melting occurs below the starting temperature of the experiment. […] Increasing concentrations of 13 cause a greater amount of the melting transition to appear at the higher temperature (i.e. a greater number of the DNA molecules are cross-linked). A greater effect for 5′-AIIAGAITTTI′-3′ can be observed at lower concentrations of 13.
Oligonucleotides were obtained from ATDbio (Southampton, UK) in lyophilised form. They were labelled with a fluorophore molecule (F=fluorescein) at the 5′-end and a quencher molecule (Q=dabcyl) at the 3′-end of the complementary strand. Each oligonucleotide was dissolved in distilled H2O to form stock solutions of 100 PM. Working solutions of 5 μM were prepared by diluting the stock solution with distilled H2O.
The following buffers were used: 250 mM phosphate buffer pH 7.4 (consisting of sodium dihydrogen phosphate and sodium phosphate diluted in distilled H2O) and 5 M sodium chloride buffer. A11 buffers and distilled H2O were filtered through a […] filter prior to use.
For the FRET experiments a stock solutions were prepared by dissolving compound (such as compound 13) in DMSO to give a concentration of 10 mM. From this stock solution, working solutions of the desired concentration were prepared by diluting the stock solution with distilled H2O.
The reaction mixture was comprised of 4 μL of 250 mM phosphate buffer (final concentration of 50 mM), 4 μL flourophor and 4 μL quencher molecule of the appropriate oligonucleotide for a final concentration of 0.2 PM, 4 μL 5 M sodium chloride (final concentration of 1 M NaCl), and 4 μL of distilled H2O. This mixture was heated in an Eppendorf tube at 90° C. for 1 min and slowly cooled down to room temperature. This process was carried out to anneal the single strands to double-stranded DNA. Following this, 4 μL of the ligand was added in the desired concentration and the mixture incubated overnight either at room temperature or 4° C. A control sample of DNA only was prepared by mixing 4 μL 250 mM phosphate buffer (final concentration of 50 mM) with 4 μL fluorophore-labelled and 4 μL quencher-labelled oligonucleotides (of the appropriate sequence) to give a final concentration of 0.2 PM, 4 μL 5 M sodium chloride (final concentration of 1 M NaCl) and 4 μL distilled H2O. This mixture was analysed without prior annealing.
Fluorescence melting profiles were measured using a Roche LightCycler using a total reaction volume of 20 μL. Initially, the samples were denatured by heating to 95° C. at a rate of 1° C. min^−1. The samples were then maintained at 95° C. for 5 min before annealing by cooling to 25° C. at 1° C. min^−1. The samples were then held at 25° C. for a further 5 min and finally melted by heating to 95° C. at 1° C. min^−1. Annealing steps and melting steps were all recorded and changes in fluorescence were measured at 520 nm.
Tm values were obtained from the first derivates of the melting profiles using the Roche LightCycler software.

The values below come from US20240002379A1, “ASYMMETRIC CONJUGATE COMPOUNDS” (Pheon Therapeutics Ltd., priority 2016, published 2024).

Take `COc1cc2c(cc1OCCCC(=O)N1C[C@@H](CCl)c3c1cc(O)c1ccccc31)N=C[C@@H]1CCCCN1C2=O` [Compound 13, (S)-3-(4-((S)-1-(Chloromethyl)-5-hydroxy-1,2-dihydro-3H-benzo[e]indol-3-yl)-4-oxobutoxy)-2-methoxy-7,8,9,10-tetrahydrobenzo[e]-pyrido[1,2-a][1,4]diazepin-12(6aH)-one]: the results for the IC50 in test [1] and in test [2] were 280 pM and 420 pM, respectively. For the same molecule, the “change of melting temperature with compound concentration” value in test [3] (FIG. 14 bottom panel) was “increases significantly”. The Tm value in test [3] (duplex alone melts below 30° C., suggests intra-strand cross-link) came out at 60 °C.
The Tm is the temperature at which the thermal transition is half complete. As for `COc1cc2c(cc1OCc1cccc(CC(=O)N3C[C@@H](CCl)c4c3cc(O)c3ccccc43)c1)N=C[C@@H]1CCCCN1C2=O` [Compound 42, (S)-3-((3-(2-((S)-1-(Chloromethyl)-5-hydroxy-1,2-dihydro-3H-benzo[e]indol-3-yl)-2-oxoethyl)benzyl)oxy)-2-methoxy-7,8,9,10-tetrahydrobenzo[e]pyrido[1,2-a][1,4]diazepin-12(6aH)-one], the Tm value in test [4] is around 80 °C. For the same molecule, in test [5], the Tm is around 80 °C. In addition, the “effect on melting temperature / DNA stabilisation” value in test [6] is “increases significantly”.
